This note sets out measurements from ChEMBL document CHEMBL5120753, “Isolation and biological activity of azocine and azocane alkaloids” (Bioorg Med Chem, 2022).

The target of one data set is Cholinesterase (Homo sapiens, UniProt P06276). As to the kind of experiment: Inhibition of human BChE.
Data set [1] in a line: Toxicity in Artemia salina assessed as mortality measured after 24 hrs by microscopic analysis. As to conditions: read-out: Activity.
The subject of data set [2] is Plasmodium falciparum. As to the kind of experiment: Antiplasmodial activity against chloroquine sensitive Plasmodium falciparum D6 assessed as cell growth inhibition. Type of data set: functional, organism-based.
In data set [3] the test system is Staphylococcus aureus. In words: Antibacterial activity against Staphylococcus aureus assessed as zone of inhibition measured after 16 hrs by disk diffusion assay. It counts as functional.
Data set [4] relates to Plasmodium falciparum. In words: Antiplasmodial activity against chloroquine sensitive Plasmodium falciparum W2 assessed as cell growth inhibition. Type of data set: functional, organism-based.
A short description of data set [5]: Toxicity in iv dosed rat assessed as lethal dose. Particulars: in vivo.
For a further data set, the system named is KB. In words: Cytotoxicity against human KB cells assessed as cell growth inhibition. Type of data set: functional, cell-based.
The next data set relates to L1210. As to the kind of experiment: Cytotoxicity against mouse L1210 cells assessed as cell growth inhibition. It counts as functional, cell-based.
In data set [6] the target is Replicase polyprotein 1ab (Severe acute respiratory syndrome coronavirus 2) (UniProt P0DTD1). As to the kind of experiment: Binding affinity to SARS-CoV-2 3C-like protease assessed as change in gibbs free energy.
In the next data set the test system is NIH3T3. As to the kind of experiment: Cytotoxicity against mouse NIH3T3 cells assessed as cell growth inhibition incubated for 48 hrs by alamar blue dye-based fluorometric analysis. Type of data set: functional. As to conditions: NIH3T3, 48 h. For orientation: Alamar Blue is a resazurin reagent that responds to reducing activity.
In data set [7] the test system is Plasmodium falciparum. As to the kind of experiment: Antimalarial activity against Plasmodium falciparum K1 infected in human RBC assessed as parasite growth inhibition measured after 48 hrs by optical microscopy. It counts as functional, organism-based. As to conditions: K1, Erythrocyte.
Another data set concerns N2a. In words: Neuroprotective activity against paraquat induced mouse Neuro2a cells assessed as reduction in cell viability at 1 uM pretreated for 1 hr followed by paraquat addition measured after 24 hrs by MTT method relative to control. Particulars: time 25 hrs. It counts as functional.
Data set [8] relates to Plasmodium falciparum. In words: Antiplasmodial activity against chloroquine-resistant Plasmodium falciparum W2 assessed as cell growth inhibition incubated for 24 hrs by [3H]-hypoxanthine based scintillation counter analysis. It counts as functional, organism-based.
Data set [9] relates to Plasmodium falciparum. In words: Antiplasmodial activity against chloroquine-sensitive Plasmodium falciparum 3D7 assessed as cell growth inhibition incubated for 24 hrs by [3H]-hypoxanthine based scintillation counter analysis. It counts as functional, organism-based.
Data set [10] is described as follows: Induction of nitric oxide production in Rabbit aortic endothelial cell at 0.1 ug/ml measured after 48 hrs by […] analysis. It counts as functional, Oryctolagus cuniculus. As to conditions: dose 0.1 µg/ml.
A short description of data set [11]: Inhibition of human beta-secretase.
Another data set concerns the target Acetylcholinesterase (Homo sapiens, UniProt P22303). In words: Inhibition of human acetylcholinesterase.
Another data set deals with B16-F10. In words: Induction of nitric oxide production in mouse B16-F10 cells at 1 ug/ml measured after 48 hrs by […] analysis. It counts as functional. As to conditions: dose 1 µg/ml.
Data set [12] concerns Plasmodium falciparum. As to the kind of experiment: Antiplasmodial activity against Plasmodium falciparum 3D7 infected in human erythrocytes assessed as cell growth inhibition incubated for 72 hrs by parasite lactate dehydrogenase assay. It counts as functional, organism-based. As to conditions: 3D7, 72 h.
The test system of a further data set is SAOS-2. As to the kind of experiment: Cytotoxicity against human SAOS-2 cells assessed as cell growth inhibition incubated for 48 hrs by microplate reader based analysis. It counts as functional. Particulars: SAOS-2, 48 h.
Data set [13] can be described thus: Cytotoxicity against human SOSP-9607 cells assessed as cell growth inhibition incubated for 48 hrs by microplate reader based analysis. Type of data set: functional. As to conditions: SOSP-9607, 48 h.
For another data set, the system named is MG-63. In words: Cytotoxicity against human MG-63 cells assessed as cell growth inhibition incubated for 48 hrs by microplate reader based analysis. Type of data set: functional. As to conditions: MG-63, 48 h.
The subject of another data set is U2OS. As to the kind of experiment: Cytotoxicity against human U2OS cells assessed as cell growth inhibition incubated for 48 hrs by microplate reader based analysis. It counts as functional.
For data set [14], the system named is Mycobacterium tuberculosis. As to the kind of experiment: Antimycobacterial activity against Mycobacterium tuberculosis H37Rv assessed as inhibition of bacterial growth. Type of data set: functional.
Data set [15] has as its system Staphylococcus aureus. As to the kind of experiment: Antibacterial activity against Staphylococcus aureus assessed as bacterial growth inhibition. Type of data set: functional.
In the next data set the test system is Plasmodium berghei. As to the kind of experiment: Antiplasmodial activity against Plasmodium berghei infected in ip dosed Swiss albino mouse assessed as growth inhibition at asexual erythrocytic stage. Type of data set: functional. On the set-up: scale not given: the % may be the effect or the level left.
The nature of data set [16]: Cytotoxicity against vincristine resistant human VJ300 cells assessed as cell growth inhibition. It counts as functional, cell-based. Particulars: VJ-300.
The test system of a further data set is B16. In words: Cytotoxicity against mouse B16 cells assessed as cell growth inhibition measured after 72 hrs by MTT assay. It counts as functional, cell-based. Particulars: B16, 72 h.
Data set [17] is described as follows: Cytotoxicity against multidrug resistant human VJ300 cells expressing P-gp assessed as cell growth inhibition measured after 72 hrs by MTT assay. It counts as functional, cell-based. As to conditions: VJ-300, 72 h. (In general: Tetrazolium dyes change colour on reduction, which living cells bring about.)

In general, IC50 refers to the concentration that inhibits the measured activity by half. As a reminder, the LD50 is the dose at which mortality reaches 50%. Broadly, the MIC50 is an inhibitory concentration at the 50% level, which refers to growth in some studies and to a panel of isolates in others. What is called MIC is the lowest concentration that inhibits growth of the organism.

≈ marks a conversion by molar mass, not a printed value. Some results are limits rather than exact numbers.

Sequence of Cholinesterase (P06276 whole entry): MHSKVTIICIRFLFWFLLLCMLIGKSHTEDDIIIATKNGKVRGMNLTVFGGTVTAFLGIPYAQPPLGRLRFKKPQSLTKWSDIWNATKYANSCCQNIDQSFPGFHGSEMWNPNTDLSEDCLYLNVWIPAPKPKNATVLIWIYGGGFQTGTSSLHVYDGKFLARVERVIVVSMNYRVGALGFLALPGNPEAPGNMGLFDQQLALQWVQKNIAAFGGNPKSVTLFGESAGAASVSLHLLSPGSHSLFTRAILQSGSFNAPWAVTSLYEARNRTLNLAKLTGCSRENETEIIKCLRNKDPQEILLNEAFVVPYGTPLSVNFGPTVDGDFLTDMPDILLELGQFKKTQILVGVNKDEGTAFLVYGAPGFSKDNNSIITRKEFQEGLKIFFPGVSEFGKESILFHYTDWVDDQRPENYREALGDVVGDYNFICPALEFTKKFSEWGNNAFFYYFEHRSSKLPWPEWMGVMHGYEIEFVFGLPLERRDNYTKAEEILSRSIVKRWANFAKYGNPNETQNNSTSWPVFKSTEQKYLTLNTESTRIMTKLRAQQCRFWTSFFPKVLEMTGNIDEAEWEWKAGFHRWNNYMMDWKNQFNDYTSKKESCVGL
Sequence of Acetylcholinesterase (P22303 whole entry): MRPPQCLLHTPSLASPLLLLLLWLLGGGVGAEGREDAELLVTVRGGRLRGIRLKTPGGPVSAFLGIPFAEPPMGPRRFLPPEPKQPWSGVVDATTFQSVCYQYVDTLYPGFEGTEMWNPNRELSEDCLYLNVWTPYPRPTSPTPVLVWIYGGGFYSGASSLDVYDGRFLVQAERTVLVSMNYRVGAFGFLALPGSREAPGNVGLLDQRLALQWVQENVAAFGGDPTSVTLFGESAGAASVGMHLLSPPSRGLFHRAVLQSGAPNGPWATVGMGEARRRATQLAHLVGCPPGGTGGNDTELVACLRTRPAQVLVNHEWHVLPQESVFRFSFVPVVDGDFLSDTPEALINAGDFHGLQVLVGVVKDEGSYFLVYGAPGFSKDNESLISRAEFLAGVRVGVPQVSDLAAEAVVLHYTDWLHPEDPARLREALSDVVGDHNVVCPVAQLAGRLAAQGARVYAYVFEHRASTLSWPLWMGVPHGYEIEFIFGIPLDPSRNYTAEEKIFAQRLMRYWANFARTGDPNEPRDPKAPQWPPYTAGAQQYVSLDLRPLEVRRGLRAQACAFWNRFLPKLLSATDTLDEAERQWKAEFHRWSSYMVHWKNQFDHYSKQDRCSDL

Consider `COC(=O)[C@]12COCC[C@@H]3[C@H](c4c1[nH]c1ccccc41)N(C)CC[C@@H]32` [UNDULIFOLINE], for which the half-inhibitory concentration (IC50) at Cholinesterase worked out at 28.5 µM.
Turning to `COc1cc([C@H]2Oc3ccc4[nH]cc5c4c3[C@@H]2C(=O)NCC5)ccc1O`, the mortality at 24 h in data set [1] stood at 90%. In addition, the 50% inhibitory concentration (IC50) in the data set on Plasmodium falciparum [2] and in the data set with Plasmodium falciparum [4] was more than 10 µg/mL each time. For the same compound, the “diameter of the inhibition zone (DIZ)” value in the data set on Staphylococcus aureus [3] is recorded as 19 mm.
Take `O=C1C[C@@H]2OCC=C3CN4CC[C@]56c7ccccc7N1[C@H]5[C@H]2[C@H]3C[C@H]46` [STRYCHNINE]: the LD50 in [5] amounted to 0.96 mg/kg.
For the compound `CC1CC2C[C@]34C(=O)CCCN3CCC[C@@]2(O)C(=O)C14` (stereo partly specified), the IC50 in the data set with KB and in the data set on L1210 was more than 10 µg/mL each time.
Consider `O=C1NCCc2c[nH]c3ccc4c(c23)[C@H]1[C@@H](c1ccc2c(c1)OCO2)O4`, for which the deltaG in [6] is -9.1 kcal/mol. Besides, the figures for the IC50 in the data set with Plasmodium falciparum [2] and in the data set with Plasmodium falciparum [4] were 3.93 µg/mL (≈ 11.3 µM) and 4.41 µg/mL (≈ 12.7 µM), respectively.
Turning to `CC[C@@H]1C2CCN(C)C1c1c([nH]c3ccc(OC)cc13)C2=O` (stereo partly specified), the half-maximal inhibitory concentration (IC50) with NIH3T3 is more than 50 µg/mL; in the data set on Plasmodium falciparum [7], 16.7 µM.
As for `CC1(C)/C=C\N2C(=O)[C@]3(O)[C@@H](O)CCN3C(=O)[C@@H]2Cc2c1[nH]c1ccccc21`, the Activity with N2a is on record as 30.3%.
`C=C1c2[nH]c3ccc(OC)cc3c2C2[C@@H](CC)C1CCN2C` (stereo partly specified): the half-maximal inhibitory concentration (IC50) in the data set with Plasmodium falciparum [8] came to 0.75 µg/mL (≈ 2.53 µM); in the data set with Plasmodium falciparum [9], 11.9 µg/mL (≈ 40.1 µM); in [11] it was 180 µM; on Cholinesterase, 24 µM; against Acetylcholinesterase it was 279 µM. Also, the results for the Activity (in data set [10]; in the data set on B16-F10) were 20.9 µM and 41.1 µM, respectively.
Turning to `O=CC1=C[C@@]2(O)CC/C=C\CCCCN3CC[C@@H]1[C@]1(C[C@@H]4/C=C\CCCCN4[C@H]12)C3` [IRCINAL], the half-maximal inhibitory concentration (IC50) with KB was determined as 4.8 µg/mL (≈ 11.7 µM); in the data set with L1210, 1.4 µg/mL (≈ 3.41 µM).
In the case of `CCC(=O)Oc1ccc([C@H]2Oc3ccc4[nH]cc5c4c3[C@@H]2C(=O)NCC5)cc1OC`, the IC50 in the data set on Plasmodium falciparum [12] came to 36.6 µM.
As for `COC(=O)C1=C2Nc3c(O)cccc3[C@]23CC[N+]2(C)C[C@H](C(C)=O)[C@H]1C[C@H]32` (stereo partly specified), the 50% inhibitory concentration (IC50) (with SAOS-2; in [13]; in the data set with MG-63; with U2OS) was 9.2 µM each time.
As to `O[C@]12C=C(c3nccc4c3[nH]c3ccccc34)[C@@H]3CCN(CCCC/C=C\CC1)C[C@@]31C[C@@H]3/C=C\CCCCN3[C@H]12` [MANZAMINE A], the MIC50 in data set [14] came to 1.5 µg/mL (≈ 2.73 µM). In addition, in the data set with Staphylococcus aureus [15], the MIC was determined as 6.3 µg/mL (≈ 11.5 µM). Further, in the data set with Plasmodium berghei, the Activity is listed as 90%.
As to `COC(=O)[C@@]12COC[C@@H](O)[C@@]3(CO)[C@@H]1CCN3Cc1c2[nH]c2ccccc12`, the IC50 in [16] stood at 7.33 µg/mL (≈ 19.7 µM); in the data set on KB it was 7.76 µg/mL (≈ 20.8 µM).
In the case of `COc1cc([C@H]2Oc3ccc4[nH]cc5c4c3[C@@H]2C(=O)NCC5)ccc1OC(=O)C(C)(C)C`, in the data set on Plasmodium falciparum [12], the 50% inhibitory concentration (IC50) amounted to 123 µM.
For the compound `C=C1C=C[C@@]23CC[C@@]45C(C2)[C@]4(CCN13)c1cc(OC)ccc1N5C(=O)OC`, the figures for the half-maximal inhibitory concentration (IC50) (with B16; in data set [17]) were 2.8 µg/mL (≈ 7.68 µM) and 4.6 µg/mL (≈ 12.6 µM), respectively.
